Values belong to the compound of their own block, whether it stands above or below them. Active and inactive are the calls of the source. The calls are words filed in the database; no cut-off is given here.
Tests used:
[1] = biological target: Mucin-1 (Homo sapiens) (UniProt P15941); experiment: Inhibition of biotinylated MUC1-CD dimerization (unknown origin) assessed as decrease in oligomer formation at 100 uM by streptavidin-HRP based assay relative to control
[2] = biological target: Mucin-1 (Homo sapiens) (UniProt P15941); experiment: Inhibition of soluble unbound MUC1-CD dimerization (unknown origin) by immunoblot analysis; conditions: concentration not given here
[3] = biological target: Mucin-1 (Homo sapiens) (UniProt P15941); experiment: Inhibition of MUC1-CD dimerization (unknown origin) expressed in HEK293 cells assessed as disruption of interaction between Flag-MUC1-CD and GFP-MUC1-CD by coimmunoprecipitation assay; assay type: cell-based
[4] = biological target: Mucin-1 (Homo sapiens) (UniProt P15941); experiment: Inhibition of MUC1-CD dimerization in human MCF10A cells assessed as reduction in MUC1-C levels at 50 to 100 uM incubated for 3 days by immunoblot analysis; assay type: cell-based
[5] = system: MCF-10A; experiment: Growth inhibition of immortalized human MCF10A cells assessed as reduction in cell number up to 100 uM incubated for 3 days by MTS assay; assay type: functional, cell-based
[6] = system: MCF-10A; experiment: Induction of apoptosis in immortalized human MCF10A cells assessed as caspase-9 cleavage at 75 uM incubated for 3 days by immunoblot analysis; assay type: functional, cell-based
[7] = system: MCF-10A; experiment: Induction of cell membrane integrity loss in immortalized human MCF10A cells at 75 uM incubated for 3 days by propidium iodide staining based flow cytometry; assay type: functional
[8] = system: MCF7; experiment: Reduction of MUC1 mRNA levels in human MCF7 cells at 75 uM incubated for 3 days by qRT-PCR analysis; assay type: functional, cell-based
[9] = biological target: Mucin-1 (Homo sapiens) (UniProt P15941); experiment: Inhibition of MUC1 nuclear import in human MCF7 cells assessed as decrease in nuclear MUC1-C levels at 75 uM incubated for 3 days by immunoblot analysis; assay type: cell-based
[10] = biological target: Mucin-1 (Homo sapiens) (UniProt P15941); experiment: Inhibition of MUC1 in human MCF7 cells assessed as decrease in MUC1 protein level in whole cell lysates at 75 uM incubated for 3 days by immunoblot analysis; assay type: subcellular; conditions: Lysate
[11] = system: MCF7; experiment: Growth inhibition in human MCF7 cells assessed as reduction in cell number at 75 uM incubated for 3 days in presence of MUC1 siRNA by MTS assay; assay type: functional, cell-based
[12] = system: MCF7; experiment: Induction of apoptosis in human MCF7 cells assessed as caspase-9 cleavage at 75 uM incubated for 3 days by immunoblot analysis; assay type: functional, cell-based
[13] = system: MCF7; experiment: Induction of cell membrane integrity loss in human MCF7 cells assessed as PI uptake level at 75 uM incubated for 3 days by propidium iodide staining based flow cytometry (reference value: 22%); assay type: functional
[14] = system: MCF-10A; experiment: Induction of cell membrane integrity loss in immortalized human MCF10A cells assessed as PI uptake level at 50 uM incubated for 3 days by propidium iodide staining based flow cytometry (reference value: 23%); assay type: functional
[15] = system: MCF-10A; experiment: Induction of cell membrane integrity loss in immortalized human MCF10A cells assessed as PI uptake level at 75 uM incubated for 3 days by propidium iodide staining based flow cytometry (reference value: 23%); assay type: functional
[16] = system: MCF-10A; experiment: Induction of cell membrane integrity loss in immortalized human MCF10A cells assessed as PI uptake level at 100 uM incubated for 3 days by propidium iodide staining based flow cytometry (reference value: 23%); assay type: functional
[17] = system: MCF7; experiment: Inhibition of colony formation in human MCF7 cells assessed as decrease in colonies at 25 uM incubated for 2 weeks by crystal violet staining based assay; assay type: functional, cell-based
[18] = system: MCF7; experiment: Inhibition of colony formation in human MCF7 cells assessed as decrease in colonies at 50 to 75 uM incubated for 2 weeks by crystal violet staining based assay; assay type: functional
[19] = biological target: Mucin-1 (Homo sapiens) (UniProt P15941); experiment: Inhibition of MUC1 in human BT474 cells assessed as reduction in MUC1-C expression at 25 to 75 uM incubated for 3 days by immunoblot analysis; assay type: cell-based
[20] = system: BT-474; experiment: Growth inhibition of human BT474 cells assessed as reduction in cell number up to 150 uM incubated for 3 days by MTS assay; assay type: functional, cell-based
[21] = system: HCC1937; experiment: Growth inhibition of human HCC1937 cells assessed as reduction in cell number up to 150 uM incubated for 3 days by MTS assay; assay type: functional, cell-based
[22] = system: BT-474; experiment: Inhibition of colony formation in human BT474 cells assessed as decrease in colonies at 25 to 75 uM incubated for 2 weeks by crystal violet staining based assay; assay type: functional, cell-based
[23] = system: ZR-75-1; experiment: Growth inhibition of human ZR-75-1 cells assessed as reduction in cell number incubated up to 2 days by MTS assay; assay type: functional, cell-based

Chain of Mucin-1 (Homo sapiens) (P15941 24-1097 limits assumed): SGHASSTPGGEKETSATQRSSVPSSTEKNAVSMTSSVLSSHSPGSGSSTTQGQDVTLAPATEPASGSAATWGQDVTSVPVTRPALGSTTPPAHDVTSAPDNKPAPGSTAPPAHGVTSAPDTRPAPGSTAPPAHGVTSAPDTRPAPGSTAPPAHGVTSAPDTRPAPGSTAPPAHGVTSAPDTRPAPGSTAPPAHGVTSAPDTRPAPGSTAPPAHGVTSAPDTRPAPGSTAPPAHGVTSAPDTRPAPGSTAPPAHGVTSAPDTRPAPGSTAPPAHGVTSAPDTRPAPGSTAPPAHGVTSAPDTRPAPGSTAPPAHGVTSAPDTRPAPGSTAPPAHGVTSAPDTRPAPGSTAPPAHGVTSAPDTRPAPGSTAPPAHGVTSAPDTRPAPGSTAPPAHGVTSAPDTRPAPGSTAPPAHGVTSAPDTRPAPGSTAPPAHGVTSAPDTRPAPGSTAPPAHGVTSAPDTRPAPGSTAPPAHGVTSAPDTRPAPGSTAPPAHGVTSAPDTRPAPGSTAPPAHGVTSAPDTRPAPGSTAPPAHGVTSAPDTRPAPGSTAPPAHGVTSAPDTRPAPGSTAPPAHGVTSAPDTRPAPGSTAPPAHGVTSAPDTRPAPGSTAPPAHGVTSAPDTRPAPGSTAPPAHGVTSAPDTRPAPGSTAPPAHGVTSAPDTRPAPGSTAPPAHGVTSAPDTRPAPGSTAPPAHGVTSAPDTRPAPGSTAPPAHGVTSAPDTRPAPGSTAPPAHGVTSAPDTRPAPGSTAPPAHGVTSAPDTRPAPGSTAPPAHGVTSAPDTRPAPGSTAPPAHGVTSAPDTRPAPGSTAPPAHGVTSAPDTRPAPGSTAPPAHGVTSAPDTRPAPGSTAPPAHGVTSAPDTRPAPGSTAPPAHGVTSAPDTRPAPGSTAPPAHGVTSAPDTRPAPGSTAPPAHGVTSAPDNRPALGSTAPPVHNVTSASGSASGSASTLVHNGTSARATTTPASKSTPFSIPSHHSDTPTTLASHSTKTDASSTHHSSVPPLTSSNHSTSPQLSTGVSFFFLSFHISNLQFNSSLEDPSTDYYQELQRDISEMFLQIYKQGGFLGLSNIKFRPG
Chain of Mucin-1 (Homo sapiens) (P15941 1098-1255 limits assumed): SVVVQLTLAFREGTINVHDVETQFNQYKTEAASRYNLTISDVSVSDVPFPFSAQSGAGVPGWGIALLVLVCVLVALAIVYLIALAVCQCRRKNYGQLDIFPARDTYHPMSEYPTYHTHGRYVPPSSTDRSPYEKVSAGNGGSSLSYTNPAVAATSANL

Compound: CC(=O)C(C)Oc1ccc2c(-c3ccccc3)cc(=O)oc2c1 (stereo unspecified)
inhibition [1]: > 50%

Compound: CCCc1c(C)c2ccc(OC(=O)C(C)NC(=O)OCc3ccccc3)cc2oc1=O (stereo unspecified)
inhibition [1]: > 50%

Compound: O=c1cc(-c2ccc(O)cc2)oc2cc(O)cc(O)c12 [APIGENIN]
inhibition [2]: 100% | inhibition [3]: Active | inhibition [4]: Active | growth inhibition (GI) [5]: Active | Activity [6]: Active | Activity [7]: Active | Activity [8]: Active | inhibition [9]: Active | inhibition [10]: Active | growth inhibition (GI) [11]: inactive | Activity [12]: Active | Activity [13]: 64% | Activity [14]: 81% | Activity [15]: 98% | Activity [16]: 96% | inhibition [17]: Active | inhibition (INH) [18]: 100% | inhibition [19]: Active | growth inhibition (GI) [20]: Active | growth inhibition (GI) [21]: inactive | inhibition [22]: Active

Compound: O=c1c(O)c(-c2ccc(O)cc2)oc2cc(O)cc(O)c12
growth inhibition (GI) [23]: Active

Continued, values first:

inhibition [1]: > 50%
Compound: CCCc1cc2c(=O)c(-c3ccc4c(c3)OCCCO4)c(C)oc2cc1OC

inhibition [1]: > 50%
Compound: CCCCc1cc2c(=O)c(-c3cc[nH]n3)c(C)oc2cc1O

Reference: ChEMBL document CHEMBL4420073, “Small molecule inhibitors of MUC1 and methods of identifying the same” (2015)
